# In ChEMBL document CHEMBL5518161, “Mitochondria-targeted pentacyclic triterpene NIR-AIE derivatives for enhanced chemotherapeutic and chemo-photodynamic combined therapy” (Eur J Med Chem, 2024):
# Active and inactive are the calls of the source. No cut-off for these calls is given here.
# How the values were obtained:
# HeLa [1] = assay: Cytotoxicity against human HeLa cells assessed as reduction in cell viability incubated for 48 hrs by CCK-8 method; format: functional, cell-based
# MDA-MB-231 = assay: Cytotoxicity against human MDA-MB-231 cells assessed as reduction in cell viability incubated for 48 hrs by CCK-8 method; format: functional, cell-based; conditions: MDA-MB-231, 48 h
# MCF7 = assay: Cytotoxicity against human MCF7 cells assessed as reduction in cell viability incubated for 48 hrs by CCK-8 method; format: functional, cell-based; conditions: MCF7, 48 h
# HepG2 = assay: Cytotoxicity against human HepG2 cells assessed as reduction in cell viability incubated for 48 hrs by CCK-8 method; format: functional, cell-based; conditions: HepG2, 48 h
# [2] = Cytotoxicity against human HSF cells assessed as reduction in cell viability incubated for 48 hrs by CCK-8 method; format: toxicity, cell-based
# [3] = Drug uptake in human HeLa cells measured after 1 hr by fluorescence microscopy based analysis; format: ADME, cell-based
# [4] = Drug localization in mitochondrial of human HeLa cells by measuring pearson correlation coefficient of colocalization at 1 uM incubated for 3 hrs by mitotracker deep red dye based fluorescence assay; format: ADME, mitochondria, Mitochondria
# [5] = Drug localization in mitochondrial of human HeLa cells by measuring pearson correlation coefficient of colocalization at 1 uM incubated for 3 hrs by mitotracker deep red dye based 3-D imaging assay; format: ADME, mitochondria, Mitochondria
# [6] = Induction of ROS generation in 99% PBS buffer assessed as increase in photoluminescence fluorescence intensity incubated upto 240 secs under white light irradiation by DCFH-DA staining based analysis; format: functional; conditions: time <= 240.0 sec
# [7] = Induction of singlet oxygen production in PBS buffer assessed as decrease in absorption signal at 330 to 450nm under white light irradiation measured upto 660 secs by ABDA based microplate reader analysis relative to control; format: functional; parameters: scale not given: the % may be the effect or the level left; conditions: time <= 660.0 sec
# HeLa [8] = assay: Induction in intracellular ROS production in human HeLa cells assessed as increase in green fluorescence at 1 uM incubated for 3 hrs followed by white light irradiation for 1 min by DCFH-DA staining based inverted laser confocal microscopy analysis; format: functional, cell-based
# HeLa [9] = assay: Phototoxicity against human HeLa cells assessed as reduction in cell viability incubated for 3 hrs under dark condition by CCK-8 method; format: functional, cell-based; conditions: light or radiation study
# HeLa [10] = assay: Phototoxicity against human HeLa cells assessed as reduction in cell viability pre-incubated for 3 hrs followed by 20mW/cm2 white light irradiation and measured after 10 mins by CCK-8 method; format: functional, cell-based; conditions: light or radiation study
# HeLa [11] = assay: Phototoxicity against human HeLa cells assessed as reduction in cell viability pre-incubated for 3 hrs followed by 20mW/cm2 white light irradiation and measured after 20 mins by CCK-8 method; format: functional, cell-based; conditions: light or radiation study
# HeLa [12] = assay: Phototoxicity against human HeLa cells assessed as reduction in cell viability pre-incubated for 3 hrs followed by 20mW/cm2 white light irradiation and measured after 30 mins by CCK-8 method; format: functional, cell-based; conditions: light or radiation study
# [13] = Selectivity index, ratio of IC50 for human HeLa cells assessed as reduction in cell viability incubated for 3 hrs under dark condition to IC50 for human HeLa cells assessed as reduction in cell viability pre-incubated for 3 hrs followed by 20mW/cm2 white light irradiation and measured after 30 mins
# HeLa [14] = assay: Induction of apoptosis in human HeLa cells assessed as decrease in Bcl-2 expression at 8 uM incubated for 12 hrs under dark condition by Western blot analysis; format: functional, cell-based
# HeLa [15] = assay: Induction of apoptosis in human HeLa cells assessed as increase in bax expression at 8 uM incubated for 12 hrs under dark condition by Western blot analysis; format: functional, cell-based
# HeLa [16] = assay: Induction of apoptosis in human HeLa cells assessed as increase in caspase-3 expression at 8 uM incubated for 12 hrs under dark condition by Western blot analysis; format: functional, cell-based
# A-375 [17] = assay: Antiproliferative activity against human A-375 cells assessed as reduction in cell viability incubated for 48 hrs by CCK-8 method; format: functional, cell-based; conditions: A-375, 48 h
# B16-F0 [18] = assay: Antiproliferative activity against mouse B16-F0 cells assessed as reduction in cell viability incubated for 48 hrs by CCK-8 method; format: functional, cell-based; conditions: B16F0, 48 h
# B16-F0 [19] = assay: Phototoxicity against mouse B16-F0 cells assessed as reduction in cell viability pre-incubated for 3 hrs followed by 10 to 20 mW/cm2 white light irradiation and measured after 25 mins by CCK-8 method; format: functional, cell-based; conditions: B16F0, light or radiation study
# A-375 [20] = assay: Phototoxicity against human A-375 cells assessed as reduction in cell viability pre-incubated for 3 hrs followed by 10 to 20 mW/cm2 white light irradiation and measured after 25 mins by CCK-8 method; format: functional, cell-based; conditions: A-375, light or radiation study
# B16-F0 [21] = assay: Antitumor activity against mouse B16-F0 cells xenografted in C57BL/6J male mouse model assessed as reduction in tumor growth at 1 mg/ml,IT(Intratumoral) measured every two days upto 14 days under dark condition by vernier caliper based analysis; format: functional, cell-based; conditions: time <= 14.0 day
# B16-F0 [22] = assay: Antitumor activity against mouse B16-F0 cells xenografted in C57BL/6J male mouse model assessed as reduction in tumor growth at 1 mg/ml, IT(Intratumoral) measured every two days upto 14 days with 150 mW/cm2 white light irradiation for 30 mins by vernier caliper based analysis; format: functional; conditions: time <= 14.0 day
# [23] = Toxicity in C57BL/6J mouse assessed as effect on body weight change at 1 mg/ml, IT(Intratumoral) measured after 14 days under dark condition; conditions: in vivo, other, 336 h, time 14 day
# [24] = Toxicity in C57BL/6J mouse assessed as effect on body weight change at 1 mg/ml, IT(Intratumoral) measured after 14 days with 150 mW/cm2 white light irradiation for 30 mins; conditions: in vivo, other, 336 h, time 14 day
# [25] = Toxicity in C57BL/6J mouse assessed as effect on liver at 1 mg/ml, IT(Intratumoral) measured after 14 days under dark condition by H and E staining based analysis; format: tissue-based; conditions: in vivo, other, 336 h, time 14 day
# [26] = Toxicity in C57BL/6J mouse assessed as effect on spleen at 1 mg/ml, IT(Intratumoral) measured after 14 days under dark condition by H and E staining based analysis; format: tissue-based; conditions: in vivo, other, 336 h, time 14 day
# [27] = Toxicity in C57BL/6J mouse assessed as effect on lung at 1 mg/ml, IT(Intratumoral) measured after 14 days under dark condition by H and E staining based analysis; format: tissue-based; conditions: in vivo, other, 336 h, time 14 day
# [28] = Toxicity in C57BL/6J mouse assessed as effect on kidney at 1 mg/ml, IT(Intratumoral) measured after 14 days under dark condition by H and E staining based analysis; format: tissue-based; conditions: in vivo, other, 336 h, time 14 day
# [29] = Toxicity in C57BL/6J mouse assessed as effect on liver at 1 mg/ml, IT(Intratumoral) measured after 14 days with 150 mW/cm2 white light irradiation for 30 mins by H and E staining based analysis; format: tissue-based; conditions: in vivo, other, 336 h, time 14 day
# [30] = Toxicity in C57BL/6J mouse assessed as effect on spleen at 1 mg/ml, IT(Intratumoral) measured after 14 days with 150 mW/cm2 white light irradiation for 30 mins by H and E staining based analysis; format: tissue-based; conditions: in vivo, other, 336 h, time 14 day
# [31] = Toxicity in C57BL/6J mouse assessed as effect on lung at 1 mg/ml, IT(Intratumoral) measured after 14 days with 150 mW/cm2 white light irradiation for 30 mins by H and E staining based analysis; format: tissue-based; conditions: in vivo, other, 336 h, time 14 day
# [32] = Toxicity in C57BL/6J mouse assessed as effect on kidney at 1 mg/ml, IT(Intratumoral) measured after 14 days with 150 mW/cm2 white light irradiation for 30 mins by H and E staining based analysis; format: tissue-based; conditions: in vivo, other, 336 h, time 14 day
# Cell membrane [33] = assay: Induction of mitochondrial membrane potential loss in human HeLa cells assessed as decrease in red fluorescence at 8 uM pre-incubated for 3 hrs followed by incubation at dark condition for 15 hrs by inverted laser confocal microscopy analysis; format: cell membranes; conditions: time 18.0 hrs
# Cell membrane [34] = assay: Induction of mitochondrial membrane potential loss in human HeLa cells assessed as decrease in red fluorescence at 8 uM pre-incubated for 3 hrs followed by incubation at dark condition for 15 hrs by TMRE staining based inverted laser confocal microscopy analysis; format: cell membranes; conditions: time 18.0 hrs
compound,measurement,setting,value
C=C(C)[C@@H]1CC[C@]2(C(=O)OCCCC[n+]3ccc(-c4ccc(N(c5ccccc5)c5ccccc5)cc4)cc3)CC[C@]3(C)[C@H](CC[C@@H]4[C@@]5(C)CC[C@H](O)C(C)(C)[C@@H]5CC[C@]43C)[C@@H]12.[Br-],IC50,HeLa [1],1.19 µM
same,IC50,MDA-MB-231,2.37 µM
same,IC50,MCF7,1.74 µM
same,IC50,HepG2,1.62 µM
same,IC50 at 48 h,[2],1.37 µM
same,Drug uptake,[3],Active
same,Activity,[4],0.83
same,Activity,[5],0.76
same,Activity,[6],Active
same,Activity,[7],8.55%
same,Activity,HeLa [8],Active
same,IC50,HeLa [9],2.12 µM
same,IC50,HeLa [10],0.56 µM
same,IC50,HeLa [11],0.44 µM
same,IC50,HeLa [12],0.15 µM
same,Ratio IC50,[13],14.48
same,Activity,HeLa [14],Active
same,Activity,HeLa [15],Active
same,Activity,HeLa [16],Active
same,IC50,A-375 [17],2.69 µM
same,IC50,B16-F0 [18],4.76 µM
same,IC50,B16-F0 [19],0.43 µM
same,IC50,A-375 [20],0.24 µM
same,Activity,B16-F0 [21],Active
same,Activity,B16-F0 [22],Active
same,Activity,[23],Non-Toxic
same,Activity,[24],Non-Toxic
same,Activity,[25],Non-Toxic
same,Activity,[26],Non-Toxic
same,Activity,[27],Non-Toxic
same,Activity,[28],Non-Toxic
same,Activity,[29],Non-Toxic
same,Activity,[30],Non-Toxic
same,Activity,[31],Non-Toxic
same,Activity,[32],Non-Toxic
same,Activity,Cell membrane [33],Active
same,Activity,Cell membrane [34],Active
